Measured values from ChEMBL document CHEMBL1201862, “PubChem BioAssay data set” (2004).
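96-well plates; 48 h exposure; 5 concentrations. Endpoints by linear interpolation between flanking doses. Not reached: highest tested concentration assigned. GI50 is the concentration that inhibits growth by half.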 Activity calls are given as the source filed them. No stated cut-off is given here; in the data, active = GI50 up to about 1.1 µM and inactive = higher.

Experiments:
Test in all cases: inhibition of tumour cell growth, NCI panel, 48 h
[1] = test system: A498
[2] = test system: COLO 205
[3] = test system: SK-OV-3
[4] = test system: NCI-H522
[5] = test system: IGROV-1
[6] = test system: CCRF-CEM
[7] = test system: SNB-75
[8] = test system: Malme-3M
[9] = test system: SK-MEL-2
[10] = test system: HCC 2998
[11] = test system: RPMI-8226
[12] = test system: SNB-19
[13] = test system: LOX IMVI
[14] = test system: SF-539
[15] = test system: A549
[16] = test system: SF-268
[17] = test system: HCT-116
[18] = test system: HCT-15
[19] = test system: KM-20L2
[20] = test system: SNB-78

Row | Structure (SMILES) | GI50 [1] | GI50 [2] | GI50 [3] | GI50 [4] | GI50 [5] | GI50 [6] | GI50 [7] | GI50 [8] | GI50 [9] | GI50 [10] | GI50 [11] | GI50 [12] | GI50 [13] | GI50 [14] | GI50 [15] | GI50 [16] | GI50 [17] | GI50 [18] | GI50 [19] | GI50 [20]
1 | COc1ccc(N2C(=O)C3c4[nH]c5cc(C)ccc5c4C4CCC(C(C)(C)C)CC4C3C2=O)cc1 (stereo not drawn) | 5.21 µM (inactive) | > 10 µM (inactive) | > 10 µM (inactive) | 8.63 µM (inactive) | > 10 µM (inactive) | > 10 µM (inactive) | 2.59 µM (inactive) | > 10 µM (inactive) | > 10 µM (inactive) | > 10 µM (inactive) | > 10 µM (inactive) | > 10 µM (inactive) | 7.24 µM (inactive) | 4.19 µM (inactive) | > 10 µM (inactive) | 5.75 µM (inactive) | > 10 µM (inactive) | > 10 µM | – | –
2 | O=C(O)CN1CCCC(Cc2c[nH]c3ccccc23)C1 (stereo not drawn) | – | > 100 µM (inactive) | > 100 µM (inactive) | – | > 100 µM (inactive) | – | > 100 µM (inactive) | > 100 µM (inactive) | > 100 µM (inactive) | > 100 µM (inactive) | – | – | > 100 µM (inactive) | > 100 µM (inactive) | > 100 µM (inactive) | > 100 µM (inactive) | – | > 100 µM | – | –
3 | CCOC(=O)CNC(=O)N(CC)C12CC3CC(CC(C3)C1)C2 | 115 µM (inactive) | 110 µM (inactive) | 123 µM (inactive) | 123 µM (inactive) | 184 µM (inactive) | 135 µM (inactive) | 131 µM (inactive) | 133 µM (inactive) | 103 µM (inactive) | 158 µM (inactive) | 115 µM (inactive) | 153 µM (inactive) | 115 µM (inactive) | 123 µM (inactive) | 166 µM (inactive) | 143 µM (inactive) | 121 µM (inactive) | 115 µM | 117 µM (inactive) | 166 µM (inactive)
4 | O=C1c2cccc3cc4ccccc4c(c23)C(=O)N1CCNCCN1C(=O)c2cccc3cc4ccccc4c(c23)C1=O | 0.716 µM (active) | 0.731 µM (active) | 1.34 µM (inactive) | 1.53 µM (inactive) | 0.589 µM (active) | 0.199 µM (active) | 0.373 µM (active) | 0.465 µM (active) | 1.58 µM (inactive) | 0.912 µM (active) | 0.718 µM (active) | 0.39 µM (active) | 0.233 µM (active) | 0.773 µM (active) | 0.186 µM (active) | 1.22 µM (inactive) | 0.415 µM (active) | 0.309 µM | 0.518 µM (active) | 0.518 µM (active)
5 | NC(=S)N/N=C/c1ccc(OC(=O)COc2ccccc2Cl)cn1 | > 72.8 µM (inactive) | 44.6 µM (inactive) | > 67 µM (inactive) | 18.1 µM (inactive) | > 93.1 µM (inactive) | 6.1 µM (inactive) | > 54.6 µM (inactive) | 24.4 µM (inactive) | 42.3 µM (inactive) | 36.6 µM (inactive) | 46.3 µM (inactive) | 47.8 µM (inactive) | 27.6 µM (inactive) | 14.3 µM (inactive) | 53.6 µM (inactive) | 17.9 µM (inactive) | 26.5 µM (inactive) | 39.5 µM | 40 µM (inactive) | > 80.9 µM (inactive)
6 | O=C(O)c1cccc2cccc(-c3c4ccc(=O)cc-4oc4cc(O)ccc34)c12 | > 100 µM (inactive) | 98.6 µM (inactive) | 33.4 µM (inactive) | > 100 µM (inactive) | 75 µM (inactive) | 69.2 µM (inactive) | 60.1 µM (inactive) | > 100 µM (inactive) | > 100 µM (inactive) | > 100 µM (inactive) | 32.6 µM (inactive) | > 100 µM (inactive) | > 100 µM (inactive) | > 100 µM (inactive) | > 100 µM (inactive) | > 100 µM (inactive) | > 100 µM (inactive) | > 100 µM | – | –
7 | CSc1sc(=S)sc1SC | > 100 µM (inactive) | > 100 µM (inactive) | > 100 µM (inactive) | > 100 µM (inactive) | > 100 µM (inactive) | > 100 µM (inactive) | 46.9 µM (inactive) | > 100 µM (inactive) | > 31.6 µM (inactive) | > 100 µM (inactive) | > 100 µM (inactive) | > 100 µM (inactive) | > 100 µM (inactive) | > 100 µM (inactive) | > 100 µM (inactive) | > 100 µM (inactive) | > 100 µM (inactive) | > 100 µM | > 100 µM (inactive) | > 100 µM (inactive)
